Measurements: US11576943B2, “Functional food composition having cranial nerve protection effect and blood flow improvement effect” (chzin Co., Ltd., priority 2020, dated 2023)
Marks after values point to notes of the source that are not given here.

Key:
[1] = cited from earlier work
rats = conditions: administered orally to rats; cited from earlier work
[2] = system: transient local cerebral ischemia animal model; experiment: Cranial neuroprotective action by oral administration in transient local cerebral ischemia animal model (MCAO); type: in vivo, sprague-dawly male rats
Experimental: The measurement of cranial neuroprotective action by oral administration of a sample in the transient local cerebral ischemia animal model was carried out as follows according to a known method.
Experimental animals were 7-week-old sprague-dawly male rats having a weight of 260 to 270 g and the experimental animals were adapted in the breeding room for 7 days before use under the environment in which the contrast cycle was controlled automatically by 12 hours. The temperature of the breeding room was maintained at 23±2° C., the humidity was 55±10%, and food and water were freely ingested.
In order to measure the neuroprotective action according to the oral administration of the sample, an animal model of cerebral ischemia was created. The middle cerebral artery occlusion (MCAO) surgery was performed to create the animal model of cerebral ischemia. […]
In order to measure the neuroprotective action of the sample according to the oral administration, the brain was excised 24 hours after the middle cerebral artery occlusion and stained with 2,3,5-triphenyltetrazolium chloride. […] The area of cerebral infarction (infarct area, mm^2) was measured using a computerized image analyzer, and the infarct volume (mm^3) was calculated by multiplying the total sum of the infarct area of each section by the thickness of the section. The measured values were expressed as mean±SEM (*p<0.05, **p<0.01).

Row | Structure (SMILES) | solubility in water [1] | LD50 (rats) | Cerebral infarct volume (mm^3) ([2]; 2 hours after induction of cerebral ischemia and 2 hours after reperfusion, brain excised 24 hours after MCAO, mean±SEM) | Cranial nerve protection effect (%) ([2]; 24 hours after MCAO, relative to physiological saline group)
1 | CC(C)[C@@H]1CC[C@@H](C)C[C@H]1O (racemic) [dl-menthol] | rarely dissolved in water | 3180 mg/kg | – | –
2 | CC1=NN(c2ccccc2)C(=O)C1 [MCI-186] | – | – | 184.2 ± 17.3** mm^3 | 47.71%
